Patent publication US20230066011A1, “PYRROLOPYRIMIDINE DERIVATIVE, AND PHARMACEUTICAL COMPOSITION FOR PREVENTING OR TREATING PROTEIN KINASE-RELATED DISEASE COMPRISING SAME AS ACTIVE INGREDIENT” (VORONOI CO., LTD., priority 2019, published 2023)

Molecular target: LRRK2 (Homo sapiens, UniProt Q5S007)
Experiment: Kinase HotSpot service (Reaction Biology Corporation), LRRK2
Format: biochemical
Design: purchased DiscoverX Corp. (ScanMAX Kinase analysis panel, service)
Conditions: ATP 10 uM, read-out: LRRK2 IC50 (values indicated by *)
Method: The inhibitory activities of the compounds were measured at a 3-fold concentration gradient starting from a maximum compound concentration of […], and the values measured using the Kinase HotSpot service (Reaction Biology Corporation) are indicated by an asterisk (*).
All the experimental methods were performed as provided by the Kinase HotSpot Customer Protocol (http://www.reactionbiology.com//Kinase_Assay_Protocol).

LRRK2, sequence (Q5S007 whole entry): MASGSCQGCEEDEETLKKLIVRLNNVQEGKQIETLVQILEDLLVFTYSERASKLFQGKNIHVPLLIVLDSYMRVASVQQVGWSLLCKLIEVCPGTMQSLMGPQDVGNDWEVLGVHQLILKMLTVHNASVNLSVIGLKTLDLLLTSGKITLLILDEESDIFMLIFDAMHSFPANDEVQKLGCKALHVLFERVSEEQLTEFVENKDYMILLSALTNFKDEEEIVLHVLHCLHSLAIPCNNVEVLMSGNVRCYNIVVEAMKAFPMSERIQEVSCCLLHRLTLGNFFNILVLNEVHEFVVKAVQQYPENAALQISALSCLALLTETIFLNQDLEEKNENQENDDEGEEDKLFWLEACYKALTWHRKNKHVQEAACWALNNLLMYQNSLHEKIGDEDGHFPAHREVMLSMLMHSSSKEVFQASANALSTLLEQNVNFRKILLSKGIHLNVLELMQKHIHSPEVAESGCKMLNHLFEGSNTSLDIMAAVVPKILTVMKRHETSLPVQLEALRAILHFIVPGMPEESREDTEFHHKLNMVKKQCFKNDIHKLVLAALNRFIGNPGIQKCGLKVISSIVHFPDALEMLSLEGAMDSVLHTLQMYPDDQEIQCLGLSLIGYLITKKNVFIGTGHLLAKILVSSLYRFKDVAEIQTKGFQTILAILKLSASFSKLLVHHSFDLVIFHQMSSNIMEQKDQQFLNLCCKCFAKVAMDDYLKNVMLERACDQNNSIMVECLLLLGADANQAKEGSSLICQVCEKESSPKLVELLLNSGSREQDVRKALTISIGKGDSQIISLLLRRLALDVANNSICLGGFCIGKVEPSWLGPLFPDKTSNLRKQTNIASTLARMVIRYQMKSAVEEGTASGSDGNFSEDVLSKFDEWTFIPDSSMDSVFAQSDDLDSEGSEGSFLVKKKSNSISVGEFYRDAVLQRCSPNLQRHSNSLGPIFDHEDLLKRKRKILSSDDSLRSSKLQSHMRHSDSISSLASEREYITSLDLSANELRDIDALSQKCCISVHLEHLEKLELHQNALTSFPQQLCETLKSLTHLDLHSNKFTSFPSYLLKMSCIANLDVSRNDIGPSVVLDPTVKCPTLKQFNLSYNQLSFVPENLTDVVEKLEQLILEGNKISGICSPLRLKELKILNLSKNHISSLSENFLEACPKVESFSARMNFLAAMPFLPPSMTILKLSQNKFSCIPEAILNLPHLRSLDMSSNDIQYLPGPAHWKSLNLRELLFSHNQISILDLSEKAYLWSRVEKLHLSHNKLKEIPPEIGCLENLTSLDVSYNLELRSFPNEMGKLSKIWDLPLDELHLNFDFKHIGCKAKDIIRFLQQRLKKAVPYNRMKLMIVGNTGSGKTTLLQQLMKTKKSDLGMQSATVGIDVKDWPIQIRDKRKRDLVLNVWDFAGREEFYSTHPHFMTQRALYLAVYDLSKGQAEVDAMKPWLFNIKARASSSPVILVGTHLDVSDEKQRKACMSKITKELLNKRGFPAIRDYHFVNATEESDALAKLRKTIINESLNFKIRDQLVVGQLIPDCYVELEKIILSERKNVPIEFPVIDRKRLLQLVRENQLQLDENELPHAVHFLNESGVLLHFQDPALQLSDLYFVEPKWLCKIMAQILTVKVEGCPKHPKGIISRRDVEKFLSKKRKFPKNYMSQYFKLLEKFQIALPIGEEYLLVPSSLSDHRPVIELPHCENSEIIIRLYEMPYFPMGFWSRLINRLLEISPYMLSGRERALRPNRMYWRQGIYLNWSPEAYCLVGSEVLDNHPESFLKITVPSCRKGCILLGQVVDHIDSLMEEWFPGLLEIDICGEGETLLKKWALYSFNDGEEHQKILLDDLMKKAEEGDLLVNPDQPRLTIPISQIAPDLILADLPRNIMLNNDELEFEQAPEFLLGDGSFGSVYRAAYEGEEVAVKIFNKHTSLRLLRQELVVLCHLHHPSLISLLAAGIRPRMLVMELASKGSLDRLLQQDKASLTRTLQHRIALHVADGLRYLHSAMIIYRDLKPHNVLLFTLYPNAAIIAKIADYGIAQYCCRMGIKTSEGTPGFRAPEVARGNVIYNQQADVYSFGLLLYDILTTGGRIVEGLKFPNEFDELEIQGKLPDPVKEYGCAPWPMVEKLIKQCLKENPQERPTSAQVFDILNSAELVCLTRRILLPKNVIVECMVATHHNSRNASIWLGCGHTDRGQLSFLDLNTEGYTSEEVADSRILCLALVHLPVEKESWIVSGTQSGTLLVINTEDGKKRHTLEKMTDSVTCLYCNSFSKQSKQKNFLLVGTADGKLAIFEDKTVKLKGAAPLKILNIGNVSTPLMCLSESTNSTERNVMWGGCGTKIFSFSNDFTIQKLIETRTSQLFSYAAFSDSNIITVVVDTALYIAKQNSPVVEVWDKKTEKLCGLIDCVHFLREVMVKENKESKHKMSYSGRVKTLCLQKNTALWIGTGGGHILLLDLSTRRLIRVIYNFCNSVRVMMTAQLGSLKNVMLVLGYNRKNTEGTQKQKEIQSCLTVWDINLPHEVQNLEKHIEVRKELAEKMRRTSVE

IC50 [nM]	Compound
< 100	CNc1nc(Nc2ccc(S(=O)(=O)N3CCC(N4CCOCC4)CC3)cc2OC)nc2[nH]cc(C(F)(F)F)c12 [Example 157, N^2-(2-methoxy-4-((4-morpholinopiperidin-1-yl)sulfonyl)phenyl)-N^4-methyl-5-(trifluoromethyl)-7H-pyrrolo[2,3-d]pyrimidine-2,4-diamine 2,2,2-trifluoroacetate]
< 100	COc1cc(S(=O)(=O)N2CCC(N3C[C@H]4C[C@@H]3CO4)CC2)ccc1Nc1nc(C2CC2)c2c(C(F)(F)F)c[nH]c2n1 [Example 473, N-(4-((4-((1R,4R)-2-oxa-5-azabicyclo[2.2.1]heptan-5-yl)piperidin-1-yl)sulfonyl)-2-methoxyphenyl)-4-cyclopropyl-5-(trifluoromethyl)-7H-pyrrolo[2,3-d]pyrimidin-2-amine]
